Laboratory results reported in US11440904B2, “Substituted pyrimidines, pharmaceutical compositions and therapeutic methods thereof” (priority 2017, dated 2022).

What was measured:
MDA-MB-231 cells = assay: Cancer cell growth inhibition, MDA-MB-231; assay type: cell-based; conditions: Homo sapiens, 72 hr, cell viability
Procedure: (§1) In order to test certain compounds of Compounds 1 to 24 for cancer cell growth inhibition, a leukemia cancer cell line EOL-1, and triple negative breast cancer cell line MDA-MB-231 was used.
(§2) EOL-1 and MDA-MB-231 cells were cultured in a RPMI-1640 cell culture medium supplemented with 10% fetal bovine serum (FBS) and 1% penicillin/streptomycin (Gibco BRL).
(§3) The cancer cell lines stored in a liquid nitrogen tank were each quickly thawed at 37° C. water bath, and centrifuged to remove the DMSO in the freezing medium. The resulting cell pellet was mixed with a culture medium, incubated in a culture flask at 37° C. under 5% CO2 for 2 to 3 days. The EOL-1 cells were sub-cultured by 1:5˜10 dilution in fresh culture medium. For MD-MB-231 cells, the culture medium was removed and the remaining cells were washed with PBS (Phosphate Buffered Saline) and trypsinized by trypsin-EDTA. The detached cells were sub-cultured by 1:5˜10 dilution in fresh culture medium.
(§4) For the cell growth inhibition assay, the cells were seeded in 96-well cell culture plates at 5×10^4 cells/well for EOL-1 and 5×10^3 cells/well for MDA-MB-231 cells in 50 μL and incubated at 37° C. under 5% CO2 for 3 to 6 hr. before the compounds were added.
(§5) Certain compounds of Compounds 1-24 were dissolved in dimethylsulfoxide (DMSO) to a concentration of 10 mM. The DMSO solution containing test compound was diluted with a culture medium to a final concentration of 600 μM, and then diluted 100 times to 6 μM as top dose followed by 1:3 serial dilutions, and then add 50 μL diluted compounds to the 50 μL cells, with a final top dose at 3 μM and the plate was incubated at 37° C. under 5% CO2 for 72 hr. The cell viability was determined by Cell Meter™ Fluorimetric Cell Cytotoxicity Assay Kit (AAT Bioquest) according to the manufacturer's instructions. Briefly, thaw and warm up the Assay Solution (Component A) to 37° C., and mix it thoroughly. Add 20 μL/well (96-well plate) of Assay Solution (Component A). Mix the reagents by shaking the plate gently for 30 seconds. Incubate the cells in a 37° C., 5% CO2 incubator for 1-24 hr., protected from light. Monitor the fluorescence intensity (bottom read) at Ex/Em=540/590 nm. Alternatively, read the O.D. at 570 nm (the reference wavelength should be 600 nm) to determine the cell viability in each well.

[1] = target: BTK phosphorylation at tyrosine 223 (Homo sapiens (Human), UniProt Q06187); assay: Immunoblot analysis of phospho-BTK(Y223) in Ramos cells; assay type: cell-based; conditions: 1 hr treatment, anti-IgM stimulation, western blot
Sequence of BTK phosphorylation at tyrosine 223 (Q06187 whole entry): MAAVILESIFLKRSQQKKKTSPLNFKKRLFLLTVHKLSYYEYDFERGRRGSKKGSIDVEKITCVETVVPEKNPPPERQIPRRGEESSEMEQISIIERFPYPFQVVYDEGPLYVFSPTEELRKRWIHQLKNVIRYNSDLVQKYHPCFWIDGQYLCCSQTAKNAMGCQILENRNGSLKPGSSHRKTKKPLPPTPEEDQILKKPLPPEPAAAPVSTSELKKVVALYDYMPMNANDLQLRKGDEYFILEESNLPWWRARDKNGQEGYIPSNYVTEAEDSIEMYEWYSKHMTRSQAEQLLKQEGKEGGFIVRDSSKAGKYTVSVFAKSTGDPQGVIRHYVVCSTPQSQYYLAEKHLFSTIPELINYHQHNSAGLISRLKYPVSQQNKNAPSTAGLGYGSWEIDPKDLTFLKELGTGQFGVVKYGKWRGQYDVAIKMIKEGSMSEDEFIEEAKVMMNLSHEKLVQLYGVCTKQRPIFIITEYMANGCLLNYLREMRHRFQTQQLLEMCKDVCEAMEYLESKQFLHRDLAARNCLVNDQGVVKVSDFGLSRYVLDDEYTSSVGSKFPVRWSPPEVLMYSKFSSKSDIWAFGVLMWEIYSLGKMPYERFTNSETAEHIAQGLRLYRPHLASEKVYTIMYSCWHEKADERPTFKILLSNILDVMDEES
Procedure: Ramos cells were cultured in RPMI-1640 medium with 10% fetal bovine serum (FBS) and 1% penicillin/streptomycin (Gibco BRL). Before the assay, Ramos cells were counted and seeded at 1×10^6 cells/mL, cultured overnight in RPMI-1640 medium with 10% FBS, the cells were centrifuged at 950 rpm for 10 min., then 1˜2×10^6 cells were split into each tube in 300 μL medium. The cells were treated with certain compounds of Compound 1-24 at 0˜3 μM for 1 hr. in 37° C., then the cells were stimulated with 10 μg/mL of anti-IgM (BioLegend) for 5 min., followed by 3 min. spin at 2000 rpm. After aspirating the supernatant, 60 μL of RIPA lysis buffer (50 mM Tris-HCl, 1 mM EDTA, 1% NP-40, 0.5% sodium deoxycholate, and 0.1% SDS, pH 7.4, 150 mM NaCl, 1 mM Na3VO4) was added to the cell pellet to lyse the cells on ice for 30 min. After spin at 10,000 rpm for 5 min., 60 μL of the cell lysate was transferred to a fresh tube, and 20 μL of 4× LDS buffer was added to the tube. The samples were boiled on a 100° C. heat block for 10 min. 25 μL lysate was loaded on to SDS-PAGE gel (NuPAGE™ Novex™ 4-12% Bis-Tris Midi Protein Gels, cat. no. WG1402BOX, ThermoFisher) for western blotting analysis per the manufacturer's instructions. Antibodies used for immunoblot analysis include Btk and p-Btk(Y223) (cat. no. 3553 and 5082; Cell Signaling Technology, Beverly, Mass.). p-Btk(Y223) (cat. no. GTX61791; GeneTex, Inc., Irvine, Calif.). Membranes were detected using infrared fluorescence dye (IRDye® 800CW Donkey anti-Rabbit IgG (H+L), cat. no. P/N 925-32213; IRDye® 680RD Donkey anti-Mouse IgG (H+L), cat. no. P/N 925-68072 and scanned on a LiCor Odyssey scanner (LiCor Biosciences, Lincoln, Nebr.).

EOL-1 cells = assay: Cancer cell growth inhibition, EOL-1; assay type: cell-based; conditions: Homo sapiens, EOL1, 72 hr, cell viability
Procedure: as §1, §2, §3, §4, §5

BTK wt = BTK wt (Homo sapiens (Human), UniProt Q06187); assay: 33P ATP HotSpot kinase assay, BTK wt; assay type: biochemical; conditions: 10 μM ATP
Sequence of BTK wt (Q06187 whole entry): as above
Description: (§6) (See, e.g., Ma, et al, 2008 Expert Opin Drug Discov. 3(6): 607-621.)

FAK = FAK (Homo sapiens (Human), UniProt Q05397); assay: 33P ATP HotSpot kinase assay, FAK; conditions: read-out: IC50 FAK, 10 μM ATP
Sequence of FAK (Q05397 whole entry): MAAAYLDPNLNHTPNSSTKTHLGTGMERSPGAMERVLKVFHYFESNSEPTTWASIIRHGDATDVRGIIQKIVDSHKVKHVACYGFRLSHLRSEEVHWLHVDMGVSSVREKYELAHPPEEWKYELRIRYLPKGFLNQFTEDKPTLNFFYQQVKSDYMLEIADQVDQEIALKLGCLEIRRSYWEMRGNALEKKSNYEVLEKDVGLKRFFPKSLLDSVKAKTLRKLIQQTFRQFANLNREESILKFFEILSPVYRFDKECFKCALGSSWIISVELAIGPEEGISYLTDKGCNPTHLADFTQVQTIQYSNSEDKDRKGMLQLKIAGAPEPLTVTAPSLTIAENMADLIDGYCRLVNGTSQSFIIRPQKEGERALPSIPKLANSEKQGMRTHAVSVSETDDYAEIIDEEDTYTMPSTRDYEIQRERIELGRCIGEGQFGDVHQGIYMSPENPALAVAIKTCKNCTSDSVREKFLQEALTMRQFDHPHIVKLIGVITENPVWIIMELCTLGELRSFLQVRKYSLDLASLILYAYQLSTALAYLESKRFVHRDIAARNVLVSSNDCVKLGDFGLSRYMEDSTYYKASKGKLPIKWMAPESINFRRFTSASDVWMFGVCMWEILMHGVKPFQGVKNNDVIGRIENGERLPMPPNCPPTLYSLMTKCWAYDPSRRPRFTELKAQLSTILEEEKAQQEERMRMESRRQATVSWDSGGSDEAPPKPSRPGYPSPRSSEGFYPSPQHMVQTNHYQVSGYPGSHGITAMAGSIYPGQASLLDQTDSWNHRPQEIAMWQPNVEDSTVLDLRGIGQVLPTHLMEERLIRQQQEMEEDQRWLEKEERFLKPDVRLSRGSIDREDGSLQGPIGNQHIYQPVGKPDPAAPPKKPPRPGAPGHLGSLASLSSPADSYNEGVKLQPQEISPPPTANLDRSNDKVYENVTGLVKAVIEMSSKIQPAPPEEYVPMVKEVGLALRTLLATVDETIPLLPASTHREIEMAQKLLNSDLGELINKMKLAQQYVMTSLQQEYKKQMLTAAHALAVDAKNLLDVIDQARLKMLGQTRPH

BMX = BMX (Homo sapiens (Human), UniProt P51813); assay: 33P ATP HotSpot kinase assay, BMX; assay type: biochemical; conditions: 10 μM ATP
Sequence of BMX (P51813 whole entry): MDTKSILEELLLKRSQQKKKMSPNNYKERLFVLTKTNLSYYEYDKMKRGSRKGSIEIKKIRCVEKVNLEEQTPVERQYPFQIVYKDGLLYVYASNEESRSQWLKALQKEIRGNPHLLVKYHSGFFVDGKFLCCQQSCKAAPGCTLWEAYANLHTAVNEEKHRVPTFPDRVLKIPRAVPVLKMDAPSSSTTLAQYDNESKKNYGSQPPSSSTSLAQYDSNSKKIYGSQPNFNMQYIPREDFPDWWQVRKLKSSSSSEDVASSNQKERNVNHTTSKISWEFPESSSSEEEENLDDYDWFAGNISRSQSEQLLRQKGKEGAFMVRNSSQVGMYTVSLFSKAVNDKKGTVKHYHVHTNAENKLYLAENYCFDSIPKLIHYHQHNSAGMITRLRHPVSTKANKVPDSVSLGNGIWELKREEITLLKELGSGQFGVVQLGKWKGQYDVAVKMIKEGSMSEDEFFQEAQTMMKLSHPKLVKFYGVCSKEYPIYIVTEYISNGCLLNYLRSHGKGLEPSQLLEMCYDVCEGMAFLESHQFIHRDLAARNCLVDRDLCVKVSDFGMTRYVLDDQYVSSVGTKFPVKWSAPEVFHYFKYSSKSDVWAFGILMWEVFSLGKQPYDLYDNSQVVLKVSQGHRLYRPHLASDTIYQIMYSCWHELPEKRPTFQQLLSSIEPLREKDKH
Procedure: as §6
(§7) Each of Compound-1 to Compound-24 was measured for its inhibitory activity on TEC family kinases, BMX and ITK. The measurement was carried out in the same process as described above, BMX, ITK enzymes were used.

ITK = ITK (Homo sapiens (Human), UniProt Q08881); assay: 33P ATP HotSpot kinase assay, ITK; assay type: biochemical; conditions: 10 μM ATP
Sequence of ITK (Q08881 whole entry): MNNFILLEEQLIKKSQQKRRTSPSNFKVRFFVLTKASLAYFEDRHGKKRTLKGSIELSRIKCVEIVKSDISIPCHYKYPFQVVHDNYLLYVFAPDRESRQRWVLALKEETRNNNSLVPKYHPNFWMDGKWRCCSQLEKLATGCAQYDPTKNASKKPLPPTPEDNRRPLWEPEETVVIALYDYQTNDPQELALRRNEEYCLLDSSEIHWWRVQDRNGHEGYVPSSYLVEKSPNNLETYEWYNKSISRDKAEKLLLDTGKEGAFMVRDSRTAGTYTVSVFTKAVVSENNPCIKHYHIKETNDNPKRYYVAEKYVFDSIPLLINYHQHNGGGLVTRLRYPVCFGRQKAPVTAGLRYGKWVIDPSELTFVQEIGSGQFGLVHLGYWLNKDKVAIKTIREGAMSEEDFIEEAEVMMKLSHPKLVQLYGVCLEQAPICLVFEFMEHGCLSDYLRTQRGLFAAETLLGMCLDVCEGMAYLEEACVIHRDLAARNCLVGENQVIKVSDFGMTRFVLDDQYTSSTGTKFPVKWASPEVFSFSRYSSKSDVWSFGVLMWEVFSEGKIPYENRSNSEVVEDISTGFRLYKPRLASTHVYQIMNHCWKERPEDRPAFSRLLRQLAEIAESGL
Procedure: as §6, §7

EGFR wt = EGFR wt (Homo sapiens (Human), UniProt P00533); assay: 33P ATP HotSpot kinase assay, EGFR wt; assay type: biochemical; conditions: 10 μM ATP
Sequence of EGFR wt (P00533 25-1210): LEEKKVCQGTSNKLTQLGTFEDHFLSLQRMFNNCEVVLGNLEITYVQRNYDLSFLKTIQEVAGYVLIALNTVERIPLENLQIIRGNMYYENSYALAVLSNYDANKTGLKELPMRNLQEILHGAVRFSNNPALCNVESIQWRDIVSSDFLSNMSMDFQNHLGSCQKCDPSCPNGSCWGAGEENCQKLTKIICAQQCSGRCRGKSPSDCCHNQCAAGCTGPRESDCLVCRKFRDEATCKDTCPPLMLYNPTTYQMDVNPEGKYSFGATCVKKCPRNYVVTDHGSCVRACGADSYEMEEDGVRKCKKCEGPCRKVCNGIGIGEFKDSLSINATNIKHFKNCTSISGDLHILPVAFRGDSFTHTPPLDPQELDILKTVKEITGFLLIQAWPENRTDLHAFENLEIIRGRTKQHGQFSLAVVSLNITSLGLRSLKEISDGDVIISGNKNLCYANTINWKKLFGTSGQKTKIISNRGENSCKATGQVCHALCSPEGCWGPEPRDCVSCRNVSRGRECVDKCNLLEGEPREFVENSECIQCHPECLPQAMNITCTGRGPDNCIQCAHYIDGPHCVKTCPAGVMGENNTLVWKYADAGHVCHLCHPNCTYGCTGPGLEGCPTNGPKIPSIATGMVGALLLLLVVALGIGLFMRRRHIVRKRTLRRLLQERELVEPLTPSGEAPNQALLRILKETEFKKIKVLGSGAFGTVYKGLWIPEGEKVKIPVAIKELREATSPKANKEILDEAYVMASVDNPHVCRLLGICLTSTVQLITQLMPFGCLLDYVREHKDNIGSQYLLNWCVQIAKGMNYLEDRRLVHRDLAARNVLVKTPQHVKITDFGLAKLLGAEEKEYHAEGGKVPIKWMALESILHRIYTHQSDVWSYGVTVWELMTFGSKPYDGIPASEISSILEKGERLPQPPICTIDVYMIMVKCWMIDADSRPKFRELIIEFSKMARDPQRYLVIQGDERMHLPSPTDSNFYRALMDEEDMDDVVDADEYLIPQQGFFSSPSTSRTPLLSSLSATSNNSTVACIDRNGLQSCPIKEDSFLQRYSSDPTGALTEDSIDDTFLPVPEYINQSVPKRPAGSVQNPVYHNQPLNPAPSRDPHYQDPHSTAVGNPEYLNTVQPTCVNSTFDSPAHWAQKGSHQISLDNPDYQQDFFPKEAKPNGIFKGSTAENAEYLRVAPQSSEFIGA

| SMILES | IC50 (MDA-MB-231 cells) | EC50 [1] | IC50 (EOL-1 cells) | IC50 (BTK wt) | IC50 (FAK) | IC50 (BMX) | IC50 (ITK) | IC50 (EGFR wt) |
| --- | --- | --- | --- | --- | --- | --- | --- | --- |
| C=CC(=O)N1CCC[C@@H](Nc2nc(Nc3ccc(OCCCOC4(CC)OCC(C)(C)CO4)cc3)ncc2F)C1 [Compound-1, 1-[(3R)-3-[[2-[4-[3-[(2-ethyl-5,5-dimethyl-1,3-dioxan-2-yl)oxy]propoxy]anilino]-5-fluoro-pyrimidin-4-yl]amino]-1-piperidyl]prop-2-en-1-one] | > 3000 nM | 100 to 1000 nM | > 3000 nM | – | – | – | – | – |
| CCC(=O)N1CCC[C@@H](Nc2nc(Nc3ccc4c(c3)OCCOCCOCCO4)nc3[nH]cnc23)C1 [Compound-4, 1-[(3R)-3-[[2-(2,5,8,11-tetraoxabicyclo[10.4.0]hexadeca-1(12),13,15-trien-14-ylamino)-9H-purin-6-yl]amino]-1-piperidyl]propan-1-one] | – | 100 to 1000 nM | – | 144 nM | 1150 nM | 19.6 nM | 1450 nM | – |
| C=CC(=O)Nc1cccc(Nc2nc(Nc3ccc4c(c3)OCCOCCOCCO4)ncc2F)c1 [Compound-6, N-[3-[[5-fluoro-2-(2,5,8,11-tetraoxabicyclo[10.4.0]hexadeca-1(12),13,15-trien-14-ylamino)pyrimidin-4-yl]amino]phenyl]prop-2-enamide] | – | < 100 nM | – | < 100 nM | > 1000 nM | < 100 nM | < 100 nM | 732 nM |
| CCC(=O)Nc1cccc(Nc2nc(Nc3ccc4c(c3)OCCOCCOCCO4)nc3[nH]cnc23)c1 [Compound-8, N-[3-[[2-(2,5,8,11-tetraoxabicyclo[10.4.0]hexadeca-1(12),13,15-trien-14-ylamino)-9H-purin-6-yl]amino]phenyl]propanamide] | – | 100 to 1000 nM | – | 88.8 nM | 1130 nM | 46.4 nM | 1290 nM | > 1000 nM |
| CN([C@@H]1CCCC[C@H]1Oc1nc(Nc2ccc3c(c2)OCCOCCOCCO3)nc2[nH]ccc12)S(C)(=O)=O [Compound-16, N-methyl-N-[(1R,2R)-2-[[2-(2,5,8,11-tetraoxabicyclo[10.4.0]hexadeca-1(16),12,14-trien-14-ylamino)-7H-pyrrolo[2,3-d]pyrimidin-4-yl]oxy]cyclohexyl]methanesulfonamide] | 3000 nM | – | 2000 nM | > 1000 nM | 34.9 nM | – | – | > 1000 nM |
| CN(C1CCCC1Oc1nc(Nc2ccc3c(c2)OCCOCCOCCO3)nc2[nH]ccc12)S(C)(=O)=O (stereo not drawn) [Compound-18, N-methyl-N-[2-[[2-(2,5,8,11-tetraoxabicyclo[10.4.0]hexadeca-1(16),12,14-trien-14-ylamino)-7H-pyrrolo[2,3-d]pyrimidin-4-yl]oxy]cyclopentyl]methanesulfonamide] | 1500 nM | – | 750 nM | > 1000 nM | – | – | – | > 1000 nM |
| c1cc(Nc2nc(Nc3ccc4c(c3)OCCOCCOCCO4)nc3[nH]cnc23)c2cc[nH]c2c1 [Compound-22, N6-(1H-indol-4-yl)-N2-(2,5,8,11-tetraoxabicyclo[10.4.0]hexadeca-1(12),13,15-trien-14-yl)-9H-purine-2,6-diamine] | > 3000 nM | – | 1200 nM | 21.4 nM | 42.4 nM | – | – | > 1000 nM |
| CC(=O)Nc1cc(F)ccc1Nc1nc(Nc2ccc3c(c2)OCCOCCOCCO3)nc2[nH]cnc12 [Compound-28, N-[5-fluoro-2-[[2-(2,5,8,11-tetraoxabicyclo[10.4.0]hexadeca-1(12),13,15-trien-14-ylamino)-9H-purin-6-yl]amino]phenyl]acetamide] | – | – | – | 9.37 nM | – | – | – | – |
| CC(=O)Nc1cc(C(F)(F)F)ccc1Nc1nc(Nc2ccc3c(c2)OCCOCCOCCO3)nc2[nH]cnc12 [Compound-29, N-[2-[[2-(2,5,8,11-tetraoxabicyclo[10.4.0]hexadeca-1(12),13,15-trien-14-ylamino)-9H-purin-6-yl]amino]-5-(trifluoromethyl)phenyl]acetamide] | – | – | – | 67.1 nM | – | – | – | – |
| C=CC(=O)Nc1cccc(-c2nc(Nc3ccc4c(c3)OCCOCCOCCO4)ncc2F)c1 [Compound-30, N-[3-[5-fluoro-2-(2,5,8,11-tetraoxabicyclo[10.4.0]hexadeca-1(12),13,15-trien-14-ylamino)pyrimidin-4-yl]phenyl]prop-2-enamide] | – | – | – | 613 nM | > 1000 nM | – | – | – |

More lines, now with the values ahead:

| IC50 (MDA-MB-231 cells) | EC50 [1] | IC50 (EOL-1 cells) | IC50 (BTK wt) | IC50 (FAK) | IC50 (BMX) | IC50 (ITK) | IC50 (EGFR wt) | SMILES |
| --- | --- | --- | --- | --- | --- | --- | --- | --- |
| – | – | – | 62.8 nM | 257 nM | – | – | > 1000 nM | c1cc(Nc2nc(Nc3ccc4c(c3)OCCOCCOCCO4)nc3[nH]cnc23)c2[nH]ccc2c1 [Compound-23, N6-(1H-indol-7-yl)-N2-(2,5,8,11-tetraoxabicyclo[10.4.0]hexadeca-1(12),13,15-trien-14-yl)-9H-purine-2,6-diamine] |
| – | – | – | 33.3 nM | – | – | – | – | C=CC(=O)Nc1cc(C)ccc1Nc1nc(Nc2ccc3c(c2)OCCOCCOCCO3)nc2[nH]ncc12 [Compound-26, N-[5-methyl-2-[[6-(2,5,8,11-tetraoxabicyclo[10.4.0]hexadeca-1(12),13,15-trien-14-ylamino)-1H-pyrazolo[3,4-d]pyrimidin-4-yl]amino]phenyl]prop-2-enamide] |
| – | – | – | 16.8 nM | – | – | – | – | CC(=O)Nc1cc(C)ccc1Nc1nc(Nc2ccc3c(c2)OCCOCCOCCO3)nc2[nH]cnc12 [Compound-27, N-[5-methyl-2-[[2-(2,5,8,11-tetraoxabicyclo[10.4.0]hexadeca-1(12),13,15-trien-14-ylamino)-9H-purin-6-yl]amino]phenyl]acetamide] |
| – | – | – | 198 nM | – | – | – | – | CN([C@@H]1c2ccccc2C[C@H]1Oc1nc(Nc2ccc3c(c2)OCCOCCOCCO3)nc2[nH]cnc12)S(C)(=O)=O [Compound-31, N-methyl-N-[(1R,2R)-2-[[2-(2,5,8,11-tetraoxabicyclo[10.4.0]hexadeca-1(12),13,15-trien-14-ylamino)-9H-purin-6-yl]oxy]indan-1-yl]methanesulfonamide] |
| – | – | – | > 10000 nM | – | – | – | – | CN([C@@H]1c2ccccc2C[C@H]1Oc1cc(Nc2ccc3c(c2)OCCOCCOCCO3)ncc1C(F)(F)F)S(C)(=O)=O [Compound-32, N-methyl-N-[(1R,2R)-2-[[2-(2,5,8,11-tetraoxabicyclo[10.4.0]hexadeca-1(12),13,15-trien-14-ylamino)-5-(trifluoromethyl)-4-pyridyl]oxy]indan-1-yl]methanesulfonamide] |
